How the values were obtained:
[1] = biological target: T1, His-mCvNTRC (mature C. vulgaris NTRC) (Chlorella vulgaris, UniProt B9ZYY5); test: NADPH oxidation at […] nm, coupled to His-mCvPrx and peroxide; format: biochemical; details: 300 uM NADPH, 100 uM peroxide, 4.0 uM His-mCvNTRC, 4.0 uM His-mCvPrx, 1 mM EDTA, 50 mM Na-phosphate pH 7.0
T1 construct: gene CvNTR-C; mature form (NTR domain plus C-terminal Trx domain) without transit peptide, C-terminal His-tag, pET-29b(+), E. coli BL21(DE3)pLysS
T1 sequence (B9ZYY5 58-529): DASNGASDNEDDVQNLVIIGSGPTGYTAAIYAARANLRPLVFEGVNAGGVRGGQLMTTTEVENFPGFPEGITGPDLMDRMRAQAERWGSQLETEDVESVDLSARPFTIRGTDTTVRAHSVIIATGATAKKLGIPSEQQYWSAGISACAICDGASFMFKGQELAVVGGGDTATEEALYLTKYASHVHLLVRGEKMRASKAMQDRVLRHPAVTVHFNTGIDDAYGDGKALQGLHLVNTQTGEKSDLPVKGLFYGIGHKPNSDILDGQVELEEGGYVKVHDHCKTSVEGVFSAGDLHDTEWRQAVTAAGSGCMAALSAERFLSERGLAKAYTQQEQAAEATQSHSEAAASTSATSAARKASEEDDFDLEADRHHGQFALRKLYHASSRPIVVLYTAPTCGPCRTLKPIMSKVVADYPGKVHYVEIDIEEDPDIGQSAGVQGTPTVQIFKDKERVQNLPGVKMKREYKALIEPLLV

[2] = biological target: T2, His-mCvPrx (mature C. vulgaris 2-Cys Prx) (Chlorella vulgaris, UniProt K4PW22); test: NADPH oxidation at […] nm, reconstituted with His-mCvNTRC; format: biochemical; details: 300 uM NADPH, 4.0 uM His-mCvPrx, 4.0 uM His-mCvNTRC as reductant, 1 mM EDTA, 50 mM Na-phosphate pH 7.0
T2 construct: mature form without predicted chloroplast transit peptide, bp 161-745 of cDNA, 194 residues of 239 (46-239 if ORF starts at bp 26); His-tagged, pTrc99A, E. coli JM109, five synonymous rare-codon changes
T2 sequence (K4PW22 46-239): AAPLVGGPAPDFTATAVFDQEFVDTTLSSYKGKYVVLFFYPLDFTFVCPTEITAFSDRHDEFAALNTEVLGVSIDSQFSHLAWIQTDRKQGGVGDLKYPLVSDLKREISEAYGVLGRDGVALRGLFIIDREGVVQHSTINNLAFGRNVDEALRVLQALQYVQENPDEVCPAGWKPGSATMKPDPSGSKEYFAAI

NC(=O)C1=CN([C@@H]2O[C@H](COP(=O)(O)OP(=O)(O)OC[C@H]3O[C@@H](n4cnc5c(N)ncnc54)[C@H](OP(=O)(O)O)[C@@H]3O)[C@@H](O)[C@H]2O)C=CC1 [NADPH]
specific activity [1]: the mCvNTRC/mCvPrx system used NADPH as a specific coenzyme to reduce peroxides

O=NOO [peroxynitrite]
specific activity ([2]; 100 uM peroxynitrite): the mCvNTRC/mCvPrx antioxidant system could decompose ONOO^−

CC(C)(C)OO [tert-butyl hydroperoxide]
specific activity ([2]; 100 uM t-BOOH): a remarkably high rate of NADPH oxidation against both H2O2 and t-BOOH
